Laboratory results from US6518243B1, “Desleucyl glycopeptide antibiotics and methods of making same” (Trustees of Princeton University, priority 1999, dated 2003).

Each compound was assayed on E. faecalis (CL 4877) (assay: Zone of inhibition screen, 96 well agar array format). Conditions: zone of inhibition relative to 1 mg/ml p-chlorobiphenylvancomycin.
Type: cell-based
Design: scale not given here
Protocol: The antibacterial activity of each of the compounds against the bacterial strains E. faceium (ATCC 49624), S. epidermidis (ATCC 12228), S. aureus (ATCC 29213), E. faecalis (CL 4877) and E. faecalis (ATCC 292121) was tested. Each of the compounds was screened in a 96 will agar array format.

Compound | zone score, E. faecalis CL 4877
CC1OC(OC2C(Oc3c4cc5cc3Oc3ccc(cc3Cl)C(O)C3NC(=O)C(NC(=O)C5NC(=O)C(CC(N)=O)NC(=O)C(NC(=O)C5CCOC5)C(O)c5ccc(c(Cl)c5)O4)c4ccc(O)c(c4)-c4c(O)cc(O)cc4C(C(=O)O)NC3=O)OC(CO)C(O)C2O)CC(C)(NCc2ccc(-c3ccc(Cl)cc3)cc2)C1O (stereo not drawn) [Compound 317] | 2
CC1OC(OC2C(Oc3c4cc5cc3Oc3ccc(cc3Cl)C(O)C3NC(=O)C(NC(=O)C5NC(=O)C(CC(N)=O)NC(=O)C(NC(=O)c5ccccc5O)C(O)c5ccc(c(Cl)c5)O4)c4ccc(O)c(c4)-c4c(O)cc(O)cc4C(C(=O)O)NC3=O)OC(CO)C(O)C2O)CC(C)(NCc2ccc(-c3ccc(Cl)cc3)cc2)C1O (stereo not drawn) [Compound 315] | 2

Same assay, conditions: zone of inhibition relative to 1 mg/ml stock solution of p-chlorobiphenylvancomycin

Compound | zone score, E. faecalis CL 4877
CC(C)C(NC(=O)CN)C(=O)NC1C(=O)NC(CC(N)=O)C(=O)NC2C(=O)NC3C(=O)NC(C(=O)NC(C(=O)O)c4cc(O)cc(O)c4-c4cc3ccc4O)C(O)c3ccc(c(Cl)c3)Oc3cc2cc(c3OC2OC(CO)C(O)C(O)C2OC2CC(C)(NCc3ccc(-c4ccc(Cl)cc4)cc3)C(O)C(C)O2)Oc2ccc(cc2Cl)C1O (stereo not drawn) [Compound 70] | 2
CC1OC(OC2C(Oc3c4cc5cc3Oc3ccc(cc3Cl)C(O)C(NC(=O)C3OC(O)C(O)C(O)C3O)C(=O)NC(CC(N)=O)C(=O)NC5C(=O)NC3C(=O)NC(C(=O)NC(C(=O)O)c5cc(O)cc(O)c5-c5cc3ccc5O)C(O)c3ccc(c(Cl)c3)O4)OC(CO)C(O)C2O)CC(C)(NCc2ccc(-c3ccc(Cl)cc3)cc2)C1O (mixture of isomers) [Compound 147] | 2
CC(=O)NCSC(C)(C)C(N)C(=O)NC1C(=O)NC(CC(N)=O)C(=O)NC2C(=O)NC3C(=O)NC(C(=O)NC(C(=O)O)c4cc(O)cc(O)c4-c4cc3ccc4O)C(O)c3ccc(c(Cl)c3)Oc3cc2cc(c3OC2OC(CO)C(O)C(O)C2OC2CC(C)(NCc3ccc(-c4ccc(Cl)cc4)cc3)C(O)C(C)O2)Oc2ccc(cc2Cl)C1O (stereo not drawn) [Compound 46] | 2
CC(=O)NCSCC(N)C(=O)NC1C(=O)NC(CC(N)=O)C(=O)NC2C(=O)NC3C(=O)NC(C(=O)NC(C(=O)O)c4cc(O)cc(O)c4-c4cc3ccc4O)C(O)c3ccc(c(Cl)c3)Oc3cc2cc(c3OC2OC(CO)C(O)C(O)C2OC2CC(C)(NCc3ccc(-c4ccc(Cl)cc4)cc3)C(O)C(C)O2)Oc2ccc(cc2Cl)C1O (stereo not drawn) [Compound 55] | 2
COCCOCCOCC(=O)NC1C(=O)NC(CC(N)=O)C(=O)NC2C(=O)NC3C(=O)NC(C(=O)NC(C(=O)O)c4cc(O)cc(O)c4-c4cc3ccc4O)C(O)c3ccc(c(Cl)c3)Oc3cc2cc(c3OC2OC(CO)C(O)C(O)C2OC2CC(C)(NCc3ccc(-c4ccc(Cl)cc4)cc3)C(O)C(C)O2)Oc2ccc(cc2Cl)C1O (stereo not drawn) [Compound 101] | 2
CC(=O)NCCCCC(NC(C)=O)C(=O)NC1C(=O)NC(CC(N)=O)C(=O)NC2C(=O)NC3C(=O)NC(C(=O)NC(C(=O)O)c4cc(O)cc(O)c4-c4cc3ccc4O)C(O)c3ccc(c(Cl)c3)Oc3cc2cc(c3OC2OC(CO)C(O)C(O)C2OC2CC(C)(NCc3ccc(-c4ccc(Cl)cc4)cc3)C(O)C(C)O2)Oc2ccc(cc2Cl)C1O (mixture of isomers) [Compound 114] | 2
C=CCOC(=O)NCC(N)C(=O)NC1C(=O)NC(CC(N)=O)C(=O)NC2C(=O)NC3C(=O)NC(C(=O)NC(C(=O)O)c4cc(O)cc(O)c4-c4cc3ccc4O)C(O)c3ccc(c(Cl)c3)Oc3cc2cc(c3OC2OC(CO)C(O)C(O)C2OC2CC(C)(NCc3ccc(-c4ccc(Cl)cc4)cc3)C(O)C(C)O2)Oc2ccc(cc2Cl)C1O (stereo not drawn) [Compound 92] | 2
CC1OC(OC2C(Oc3c4cc5cc3Oc3ccc(cc3Cl)C(O)C(NC(=O)C3(O)CC(O)C(O)C(O)C3)C(=O)NC(CC(N)=O)C(=O)NC5C(=O)NC3C(=O)NC(C(=O)NC(C(=O)O)c5cc(O)cc(O)c5-c5cc3ccc5O)C(O)c3ccc(c(Cl)c3)O4)OC(CO)C(O)C2O)CC(C)(NCc2ccc(-c3ccc(Cl)cc3)cc2)C1O (stereo not drawn) [Compound 146] | 2
CC1OC(OC2C(Oc3c4cc5cc3Oc3ccc(cc3Cl)C(O)C(NC(=O)C(O)C(O)C(O)CO)C(=O)NC(CC(N)=O)C(=O)NC5C(=O)NC3C(=O)NC(C(=O)NC(C(=O)O)c5cc(O)cc(O)c5-c5cc3ccc5O)C(O)c3ccc(c(Cl)c3)O4)OC(CO)C(O)C2O)CC(C)(NCc2ccc(-c3ccc(Cl)cc3)cc2)C1O (stereo not drawn) [Compound 127] | 2
CC1OC(OC2C(Oc3c4cc5cc3Oc3ccc(cc3Cl)[C@@H](O)[C@@H](NC(=O)[C@H]3CC(=O)NC(=O)N3)C(=O)N[C@@H](CC(N)=O)C(=O)N[C@H]5C(=O)NC3C(=O)N[C@H](C(=O)N[C@@H](C(=O)O)c5cc(O)cc(O)c5-c5cc3ccc5O)[C@H](O)c3ccc(c(Cl)c3)O4)OC(CO)C(O)C2O)CC(C)(NCc2ccc(-c3ccc(Cl)cc3)cc2)C1O (stereo partly drawn) [Compound 168] | 2
CC1OC(OC2C(Oc3c4cc5cc3Oc3ccc(cc3Cl)C(O)C3NC(=O)C(NC(=O)C5NC(=O)C(CC(N)=O)NC(=O)C(NC(=O)C5CC(=O)N5)C(O)c5ccc(c(Cl)c5)O4)c4ccc(O)c(c4)-c4c(O)cc(O)cc4C(C(=O)O)NC3=O)OC(CO)C(O)C2O)CC(C)(NCc2ccc(-c3ccc(Cl)cc3)cc2)C1O (stereo not drawn) [Compound 96] | 2
CC1OC(OC2C(Oc3c4cc5cc3Oc3ccc(cc3Cl)C(O)C(NC(=O)C3CCC(O)N3C(=O)C3CCCN3C(=O)CN)C(=O)NC(CC(N)=O)C(=O)NC5C(=O)NC3C(=O)NC(C(=O)NC(C(=O)O)c5cc(O)cc(O)c5-c5cc3ccc5O)C(O)c3ccc(c(Cl)c3)O4)OC(CO)C(O)C2O)CC(C)(NCc2ccc(-c3ccc(Cl)cc3)cc2)C1O (stereo not drawn) [Compound 69] | 2
CC1OC(OC2C(Oc3c4cc5cc3Oc3ccc(cc3Cl)C(O)C3NC(=O)C(NC(=O)C5NC(=O)C(CC(N)=O)NC(=O)C(NC(=O)C(Cc5c[nH]cn5)NC(N)=O)C(O)c5ccc(c(Cl)c5)O4)c4ccc(O)c(c4)-c4c(O)cc(O)cc4C(C(=O)O)NC3=O)OC(CO)C(O)C2O)CC(C)(NCc2ccc(-c3ccc(Cl)cc3)cc2)C1O (stereo not drawn) [Compound 192] | 2
CC(OC(c1ccccc1)(c1ccccc1)c1ccccc1)[C@H](N)C(=O)N[C@H]1C(=O)N[C@@H](CC(N)=O)C(=O)N[C@H]2C(=O)N[C@H]3C(=O)N[C@H](C(=O)N[C@@H](C(=O)O)c4cc(O)cc(O)c4-c4cc3ccc4O)[C@H](O)c3ccc(c(Cl)c3)Oc3cc2cc(c3O[C@@H]2O[C@H](CO)[C@@H](O)[C@H](O)[C@H]2O[C@@H]2C[C@@](C)(NCc3ccc(-c4ccc(Cl)cc4)cc3)[C@@H](O)[C@@H](C)O2)Oc2ccc(cc2Cl)[C@H]1O (stereo partly drawn) [Compound 11] | 2
CC1OC(OC2C(Oc3c4cc5cc3Oc3ccc(cc3Cl)C(O)C(NC(=O)C3OC(O)C(O)C(O)C3O)C(=O)NC(CC(N)=O)C(=O)NC5C(=O)NC3C(=O)NC(C(=O)NC(C(=O)O)c5cc(O)cc(O)c5-c5cc3ccc5O)C(O)c3ccc(c(Cl)c3)O4)OC(CO)C(O)C2O)CC(C)(NCc2ccc(-c3ccc(Cl)cc3)cc2)C1O (mixture of isomers) [Compound 148] | 2
CC(=O)NC(C)C(=O)NC1C(=O)NC(CC(N)=O)C(=O)NC2C(=O)NC3C(=O)NC(C(=O)NC(C(=O)O)c4cc(O)cc(O)c4-c4cc3ccc4O)C(O)c3ccc(c(Cl)c3)Oc3cc2cc(c3OC2OC(CO)C(O)C(O)C2OC2CC(C)(NCc3ccc(-c4ccc(Cl)cc4)cc3)C(O)C(C)O2)Oc2ccc(cc2Cl)C1O (mixture of isomers) [Compound 174] | 2
CC1OC(OC2C(Oc3c4cc5cc3Oc3ccc(cc3Cl)[C@@H](O)[C@@H](NC(=O)CNC(N)=O)C(=O)N[C@@H](CC(N)=O)C(=O)N[C@H]5C(=O)NC3C(=O)N[C@H](C(=O)N[C@@H](C(=O)O)c5cc(O)cc(O)c5-c5cc3ccc5O)[C@H](O)c3ccc(c(Cl)c3)O4)OC(CO)C(O)C2O)CC(C)(NCc2ccc(-c3ccc(Cl)cc3)cc2)C1O (stereo partly drawn) [Compound 162] | 2
CC1OC(OC2C(Oc3c4cc5cc3Oc3ccc(cc3Cl)C(O)C3NC(=O)C(NC(=O)C5NC(=O)C(CC(N)=O)NC(=O)C(NC(=O)C(CC(N)=O)NC(=O)OC(C)(C)C)C(O)c5ccc(c(Cl)c5)O4)c4ccc(O)c(c4)-c4c(O)cc(O)cc4C(C(=O)O)NC3=O)OC(CO)C(O)C2O)CC(C)(NCc2ccc(-c3ccc(Cl)cc3)cc2)C1O (stereo not drawn) [Compound 133] | 2
CC1OC(OC2C(Oc3c4cc5cc3Oc3ccc(cc3Cl)C(O)C3NC(=O)C(NC(=O)C5NC(=O)C(CC(N)=O)NC(=O)C(NC(=O)CNC(=O)CNC(=O)OC(C)(C)C)C(O)c5ccc(c(Cl)c5)O4)c4ccc(O)c(c4)-c4c(O)cc(O)cc4C(C(=O)O)NC3=O)OC(CO)C(O)C2O)CC(C)(NCc2ccc(-c3ccc(Cl)cc3)cc2)C1O (stereo not drawn) [Compound 140] | 2
CC1OC(OC2C(Oc3c4cc5cc3Oc3ccc(cc3Cl)[C@@H](O)[C@@H](NC(=O)[C@H](O)CCCNC(=N)N)C(=O)N[C@@H](CC(N)=O)C(=O)N[C@H]5C(=O)NC3C(=O)N[C@H](C(=O)N[C@@H](C(=O)O)c5cc(O)cc(O)c5-c5cc3ccc5O)[C@H](O)c3ccc(c(Cl)c3)O4)OC(CO)C(O)C2O)CC(C)(NCc2ccc(-c3ccc(Cl)cc3)cc2)C1O (stereo partly drawn) [Compound 165] | 2
CC(N)C(=O)NC1C(=O)NC(CC(N)=O)C(=O)NC2C(=O)NC3C(=O)NC(C(=O)NC(C(=O)O)c4cc(O)cc(O)c4-c4cc3ccc4O)C(O)c3ccc(c(Cl)c3)Oc3cc2cc(c3OC2OC(CO)C(O)C(O)C2OC2CC(C)(NCc3ccc(-c4ccc(Cl)cc4)cc3)C(O)C(C)O2)Oc2ccc(cc2Cl)C1O (stereo not drawn) [Compound 51] | 2
Cc1ccc(C(NCCCCC(N)C(=O)NC2C(=O)NC(CC(N)=O)C(=O)NC3C(=O)NC4C(=O)NC(C(=O)NC(C(=O)O)c5cc(O)cc(O)c5-c5cc4ccc5O)C(O)c4ccc(c(Cl)c4)Oc4cc3cc(c4OC3OC(CO)C(O)C(O)C3OC3CC(C)(NCc4ccc(-c5ccc(Cl)cc5)cc4)C(O)C(C)O3)Oc3ccc(cc3Cl)C2O)(c2ccccc2)c2ccccc2)cc1 (stereo not drawn) [Compound 40] | 2
